# Laboratory results taken from patent US20250161253A1, “NUTRITIONAL PRODUCT” (VITAFLO (INTERNATIONAL) LTD, priority 2012, published 2025).
# Columns and labels:
# SH-SY5Y cells [1] = assay: citrate synthase activity in SH-SY5Y cells (marker of mitochondrial enrichment); type: cell-based, human; settings: 6 days; for effect on citrate synthase activity compared to control cells (in words): 50-300 μM
# Experimental: Mitochondrial enrichment was estimated by evaluation of citrate synthase activity (corrected for total cellular protein content). This enzyme is localised at the mitochondria, comprises part of the TCA cycle and is commonly used as a marker of mitochondrial enrichment. A human neuroblastoma cell line (SH-SY5Y) was utilised throughout this study, except where stated. In brief, cells were exposed to a range (50-300 μM, dissolved in 0.5% DMSO) of either octanoic or decanoic acid concentrations. After 6 days, the cells were harvested and citrate synthase activity was determined. Activity was expressed as nmol/min/mg of cellular protein.
# SH-SY5Y cells [2] = assay: electron microscopy analysis of mitochondrial density and morphology in SH-SY5Y cells; type: cell-based, human; settings: 250 μM, p<0.002
# Experimental: Additionally, SH-SY5Y cells were prepared for electron microscopy (EM) analysis to assess mitochondrial density and morphology following treatment with decanoic acid.
# SH-SY5Y cells [3] = assay: Complex I activity in SH-SY5Y cells; type: cell-based, human; settings: 250 μM, 6 days
# Experimental: In order to gain further independent insight into mitochondrial function, the activity of the respiratory chain enzyme, Complex I, was also evaluated. In a second experiment, cells were exposed to decanoic acid (250 μM, dissolved in 0.5% DMSO) for 6 days. The cells were subsequently harvested, and the activity of Complex I was determined. Each experiment was repeated 5 times, and the activity was expressed as nmol/min/mg of cellular protein.
# [4] = system: primary human fibroblasts; assay: citrate synthase activity in primary human fibroblasts; type: cell-based; settings: 250 μM, 6 days
# Experimental: Finally, the effect of decanoic acid was validated in an independent cell line. Primary cultures of human fibroblasts were exposed to decanoic acid at a concentration of 250 μM for 6 days. Following the incubation, citrate synthase activity was again assessed.
smiles,measurement,setting,value
"CCCCCCCCCC(=O)O [Decanoic Acid, decanoic acid]",increase in citrate synthase activity compared to control cells,"SH-SY5Y cells [1]; 250 μM, maximum, p<0.001",30%
same,citrate synthase activity,"SH-SY5Y cells [1]; 250 μM, n = 8, control 105 ± 5",137 ± 5 nmol/min/mg cell protein
same,effect on citrate synthase activity compared to control cells (in words),SH-SY5Y cells [1],dose dependent
same,number of mitochondria per cell (EM),SH-SY5Y cells [2],significant (p<0.002) increase
same,Complex I activity with respect to control,SH-SY5Y cells [3]; p<0.002,significant (p<0.002) increase
same,Complex I activity normalised against citrate synthase activity,SH-SY5Y cells [3]; p<0.05,significant (p<0.05) increase
same,increase in citrate synthase activity,[4],45%
"CCCCCCCC(=O)O [Octanoic acid, octanoic acid, reference compound]",effect on citrate synthase activity compared to control cells (in words),SH-SY5Y cells [1],no effect
